Data from article PMC11643744, “New Conjugates of Vancomycin with Cell-Penetrating Peptides—Synthesis, Antimicrobial Activity, Cytotoxicity, and BBB Permeability Studies” (Molecules, 2024).
In brackets after ≈: the same amount, converted by molar mass. Several values for one entry are separate records, joined by “and”; a condition that tells them apart may be missing. Equal entries are not always repeated. Where two headings read alike, the source gives them in different places.

Assays:
[1] = tested on: E. coli ATCC 25922; test: microbe, parasite or virus in culture; format: cell-based, Escherichia coli; conditions: Escherichia coli, ATCC25922; reference strain
Experimental: (§1) The antimicrobial activity of the synthesized compounds was evaluated against four reference bacterial strains: Staphylococcus aureus (ATCC 29213), Enterococcus faecalis (ATCC 29212), Escherichia coli (ATCC 25922), and Pseudomonas aeruginosa (ATCC 27853), which are commonly used for determining antibacterial activity. In addition, two clinical strains, S. aureus (MRSA) and E. faecium (VRE), were included in the study. The bacterial strains were inoculated from Selectrol discs (Biomaxima SA, Lublin, Poland) onto blood agar (Graso Biotech, Starogard Gdański, Poland) and incubated at 37 °C for 24 h. Before testing, the strains were cultured aerobically on blood agar at 37 °C for 24 h.
(§2) The susceptibility of microorganisms to the synthesized compounds was determined using the broth microdilution assay, following the guidelines outlined by CLSI [30]. The final concentrations of the tested compounds in Mueller–Hinton broth, in 96-well plates (VWR International Sp. z o.o., Gdańsk, Poland), ranged from 0.125 to 256 mg/L. To prepare the bacterial suspension, bacteria from the overnight culture on blood agar were diluted in sterile 0.9% NaCl to achieve a turbidity equivalent to a 0.5 McFarland standard. The adjusted inoculum suspension was further diluted in Mueller–Hinton broth so that after inoculation, each well contained approximately 5 × 10^5 CFU/mL. Aliquots (5 µL) of bacterial suspension were added to each solution. The sterility control (containing the broth) and the growth control (containing the reference strain in broth without the tested compound) were also set up. The antibiotics vancomycin and gentamicin were used as a control. The plates were incubated at 37 °C under aerobic conditions. The results are expressed as the MIC of the tested compounds, which was defined as the lowest concentration at which no visible growth of bacteria (no turbidity) was observed. The assay was performed in triplicate.

[2] = tested on: E. faecalis ATCC 29212; test: microbe, parasite or virus in culture; format: cell-based, Enterococcus faecalis; conditions: Enterococcus faecalis
Experimental: as §1, §2

[3] = tested on: Pseudomonas aeruginosa (ATCC 27853); test: Broth microdilution MIC, P. aeruginosa reference strain; format: cell-based
Experimental: as §1
The susceptibility of microorganisms to the synthesized compounds was determined using the broth microdilution assay, following the guidelines outlined by CLSI [30]. The final concentrations of the tested compounds in Mueller–Hinton broth, in 96-well plates (VWR International Sp. z o.o., Gdańsk, Poland), ranged from 0.125 to 256 mg/L. To prepare the bacterial suspension, bacteria from the overnight culture on blood agar were diluted in sterile 0.9% NaCl to achieve a turbidity equivalent to a 0.5 McFarland standard. […] The results are expressed as the MIC of the tested compounds, which was defined as the lowest concentration at which no visible growth of bacteria (no turbidity) was observed. […]

[4] = tested on: S. aureus ATCC 29213; test: microbe, parasite or virus in culture; format: cell-based, Staphylococcus aureus; conditions: Staphylococcus aureus
Experimental: as §1, §2

[5] = tested on: S. aureus MRSA (clinical isolate no 203); test: microbe, parasite or virus in culture; format: cell-based, Staphylococcus aureus; conditions: Staphylococcus aureus, read-out: MIC S. aureus MRSA
Experimental: as §1, §2

[6] = tested on: E. faecium VRE (clinical isolate UCK 7979384); test: microbe, parasite or virus in culture; format: cell-based; conditions: Enterococcus faecium, VRE, read-out: MIC E. faecium VRE
Experimental: as §1, §2

[7] = tested on: S. aureus (ATCC 29213); test: Checkerboard assay, interaction of Van with CPP components (FICI); format: cell-based, Staphylococcus aureus; conditions: Van alone
Experimental: To determine possible interactions between Van and the CPP components of the conjugates, fractional inhibitory concentrations (FICs) were calculated for the tested compounds (Prop-Tat (47–57) and Prop-Arg9) using the following formula: FICA = MICA(with B)/MICA, FICB = MICB(with A)/MICB. To determine MICA(with B) and MICB(with A), a checkerboard assay was carried out in 96-well microtiter plates. Each test was performed in duplicate. The concentration range was 1.07 to 8 µg/mL for Van, 2.13 to 16 µg/mL for Prop-Tat (47–58), and 8.54 to 64 µg/mL for Prop-Arg9. Aliquots of 5 μL of bacterial suspension (at a concentration of 10^7 CFU/mL) were added to each well of the 96-well plate containing 100 μL of test compounds in Mueller–Hinton broth. The bacterial strain used was S. aureus (ATCC 29213). The plates were then incubated at 37 °C for 24 h. […] FIC values for Van, Prop-Tat (47–57) and Prop-Arg9 were calculated as follows: FICVan = MICVan+Prop-Tat (47–57) or FICVan = MICVan+Prop-Arg9 divided by MIC of Van alone, FICProp-Tat (47–57) = MICProp-Tat (47–57)+Van divided by MIC of Prop-Tat (47–57) alone, and FICProp-Arg9 = MICProp-Arg9+Van divided by MIC of Prop-Arg9 alone. The FIC indexes (FICIs) were calculated for the tested compounds as the sum of FICA and FICB.

[8] = PAMPA-BBB assay; conditions: 20 h incubation, mean ± SEM
Description: This assay utilized a 96-well plate assembly consisting of a filter plate pre-coated with polar brain lipids (donor plate) and a receiver plate (acceptor plate). The phospholipid mixture used to coat the membrane was extracted from porcine polar brain lipids, with the following composition: 12.6% phosphatidylcholine, 33.1% phosphatidylethanolamine, 18.5% phosphatidylserine, 4.1% phosphatidylinositol, 0.8% phosphatidic acid, and 30.9% of other compounds, including cerebrosides, sulfatides, and pigments.
In each well of the donor filtration plate (Multiscreen Filter Plate, PVDF with a pore size of 0.45 µm), 5 µL of the phospholipid mixture in n-dodecane (20 mg/mL) was carefully applied to form the artificial membrane. After coating, 200 µL of phosphate-buffered saline (PBS at pH 7.4) containing 5% dimethyl sulfoxide (DMSO) as a co-solvent, and the test compound (at a concentration of 20 µM) was added to each well of the donor plate (in triplicate). […] The plate lid was then replaced and the resulting assembled donor–acceptor plates were incubated at room temperature for 20 h. After this time, the donor plate was removed and solutions from each well of both acceptor and donor plates were collected for further analysis. The concentrations of the tested compounds were determined by LC-MS. The analysis was conducted by UHPLC-MS system (Shimadzu Nexera X2 with LCMS-2020 detector) using a ReproSil Pure 120 ODS-3 column (Dr. Maisch GmbH, 100 × 2 mm, 2.4 µm particle size) with several gradients of ACN with 0.1% FA and 0.05% TFA at a flow rate of 0.3 mL/min. The eluted solution was monitored by an ESI-MS detector operated in a selected ion monitoring mode (SIM). […] CE=CD×VD+CA×VA/VD+VA

[9] = tested on: normal human fibroblasts, BJ line (CRL-2522); test: Neutral red cytotoxicity assay; conditions: 24 h
Experimental: Normal human fibroblasts, BJ line (CRL-2522™), Eagle’s Minimum Essential Medium (EMEM), and fetal bovine serum (FBS) were obtained from ATCC (Manassas, VA, USA). Cells were grown following ATCC guidelines in an EMEM medium supplemented with 10% FBS at 37 °C in a humidified atmosphere of 95% air and 5% CO2 in a HeraCell 150 incubator (Heraeus, Hanau, Germany).
The assay was performed as per previously published protocols with slight modifications. In brief, BJ cells were plated in 96-well tissue culture plates (Nest Scientific Biotechnology, Wuxi, China) at a density of 6 × 10^3 cells per well and allowed to attach for 24 h in EMEM supplemented with 10% FBS. After the incubation period, the medium was removed, and 10% dimethyl sulfoxide (DMSO)-treated cells (Sigma-Aldrich, St. Louis, MO, USA) were used as a positive control, while nontreated cells served as a negative control.
The cells were treated with peptides suspended in EMEM medium supplemented with 10% FBS and incubated for 24 h at 37 °C in a humidified atmosphere of 95% air and 5% CO2. After the incubation, the supernatants were discarded and replaced with 100 µL of non-supplemented EMEM containing 0.33% neutral red (Sigma-Aldrich) diluted 1:40. The cells were incubated for an additional 2 h at 37 °C. Following incubation, the neutral red medium was removed, and the cells were washed with 100 µL of phosphate-buffered saline (PBS) per well.
To extract the dye into the solution, the cells were treated with 150 µL of a solution containing 50% ethanol (Alchem, Torun, Poland), 49% distilled H2O, and 1% acetic acid (Alchem, Torun, Poland) and incubated under shaking at 37 °C for 10 min. Absorbance was measured at 540 nm using a Synergy H1 plate reader (BioTek Instruments, Winooski, VT, USA). The assay was performed in triplicate to ensure reproducibility.

CNC(C)C1CCC(N)C(OC2C(N)CC(N)C(OC3OCC(C)(O)C(NC)C3O)C2O)O1 (stereo not drawn) [Gentamicin]
MIC [1]: 1.95 µg/mL and 4.08 µM
MIC ([2]; ATCC29212, reference strain, read-out: MIC E. faecalis ATCC 29212): 7.8 µg/mL and 16.3 µM
MIC ([3]; Pseudomonas aeruginosa, ATCC27853, reference strain): 4.08 µM (≈ 1.95 µg/mL)
MIC ([4]; ATCC29213, reference strain, read-out: MIC S. aureus ATCC 29213): 0.24 µg/mL and 0.5 µM
MIC ([5]; methicillin-resistant clinical isolate no 203): 0.48 µg/mL and 1 µM
MIC ([6]; vancomycin-resistant clinical isolate UCK 7979384): 7.8 µg/mL and 16.3 µM

CN[C@H](CC(C)C)C(=O)N[C@H]1C(=O)N[C@@H](CC(N)=O)C(=O)N[C@H]2C(=O)N[C@H]3C(=O)N[C@H](C(=O)N[C@H](C(=O)O)c4cc(O)cc(O)c4-c4cc3ccc4O)[C@H](O)c3ccc(c(Cl)c3)Oc3cc2cc(c3O[C@@H]2O[C@H](CO)[C@@H](O)[C@H](O)[C@H]2O[C@H]2C[C@](C)(N)[C@H](O)[C@H](C)O2)Oc2ccc(cc2Cl)[C@H]1O [Vancomycin]
MICA [7]: 2 µg/mL
R, mass retention [8]: 11.3 ± 3.4%
MIC ([2]; ATCC29212, read-out: MIC E. faecalis ATCC 29212): 8 µg/mL and 5.38 µM
concentration above which cytotoxicity was shown [9]: above 16 µg/mL
effect on cell viability ([9]; at concentrations up to 4 µg/mL): did not substantially affect cell viability
inhibitory activity against P. aeruginosa ([3]; at the concentrations tested): resistant
MIC ([4]; ATCC29213, read-out: MIC S. aureus ATCC 29213): 2 µg/mL and 1.35 µM
MIC [5]: 1.5 µg/mL and 1.01 µM
MIC [6]: > 256 µg/mL and > 172 µM
